Reference: article PMC3479662 (Journal of medicinal chemistry, 2012)
Marks after values point to notes of the source that are not given here.

Assays:
hA1AR [1] = biological target: T1, hA1AR (Homo sapiens, UniProt P30542); conditions: for agonist character at the A1AR (full / partial agonist): cyclic AMP assay, hA1AR
T1 sequence (P30542 1-326): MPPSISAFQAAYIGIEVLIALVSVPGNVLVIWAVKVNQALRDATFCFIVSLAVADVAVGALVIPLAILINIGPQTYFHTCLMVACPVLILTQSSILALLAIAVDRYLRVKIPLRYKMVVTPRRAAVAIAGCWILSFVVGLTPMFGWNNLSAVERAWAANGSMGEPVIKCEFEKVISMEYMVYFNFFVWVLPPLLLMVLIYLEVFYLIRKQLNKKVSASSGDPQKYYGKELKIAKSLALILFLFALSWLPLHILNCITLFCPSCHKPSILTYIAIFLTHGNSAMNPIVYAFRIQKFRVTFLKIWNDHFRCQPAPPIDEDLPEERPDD

hA1AR [2] = biological target: T1, hA1AR; test: Radioligand binding at hA1AR, [3H]R-PIA, membranes of CHO cells; conditions: human orthologue more potent than rat
A3AR = conditions: read-out: Affinity Ki, A3; human unless noted; ref de Zwaart et al.[38]; cited from earlier work
rat A1AR = conditions: ref Jacobson et al.[39]; cited from earlier work
rat A2AAR = conditions: ref Jacobson et al.[39]; cited from earlier work
hA2AAR = hA2AAR (Homo sapiens, UniProt P29274); test: Stimulation of cyclic AMP production in A2AAR-expressing CHO cells; format: cell-based; conditions: cyclic AMP assay
hA2AAR, sequence (P29274 whole entry): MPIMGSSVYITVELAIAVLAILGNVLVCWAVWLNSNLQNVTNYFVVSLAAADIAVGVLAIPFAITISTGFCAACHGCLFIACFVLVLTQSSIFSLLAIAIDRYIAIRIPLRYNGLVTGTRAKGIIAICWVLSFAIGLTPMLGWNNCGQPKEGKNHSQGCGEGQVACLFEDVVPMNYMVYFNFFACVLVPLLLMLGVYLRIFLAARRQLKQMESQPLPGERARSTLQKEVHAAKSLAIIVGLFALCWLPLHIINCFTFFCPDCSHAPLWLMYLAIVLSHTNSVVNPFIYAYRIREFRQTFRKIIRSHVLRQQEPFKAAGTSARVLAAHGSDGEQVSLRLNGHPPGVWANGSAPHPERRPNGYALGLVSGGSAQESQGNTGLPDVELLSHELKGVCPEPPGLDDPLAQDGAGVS

| Structure (SMILES) | agonist character at the A1AR (full / partial agonist) (hA1AR [1]) | Ki (A3AR) [nM] | also measured |
| --- | --- | --- | --- |
| CCNC(=O)[C@H]1O[C@@H](n2cnc3c(N)ncnc32)[C@H](O)[C@@H]1O [Compound 1, 5′-N-ethylcarboxamidoadenosine, reference compound] |  |  | Activation of A1, % of 1, 10 μM (hA1AR [1]; single point at 10 μM, effect of full agonist 1 = 100%, hA1AR CHO cells): 100 % of 1 |
| Nc1ncnc2c1ncn2[C@@H]1O[C@H](C(=O)NCC(F)(F)F)[C@@H](O)[C@H]1O [Compound 5] | partial agonists |  | difference between rat and human A1AR binding affinities (hA1AR [2]): approximately 100 fold |
| Nc1ncnc2c1ncn2[C@@H]1O[C@H](C(=O)NCCCl)[C@@H](O)[C@H]1O [Compound 6, reference compound] |  | 332 |  |
| NCCNC(=O)[C@H]1O[C@@H](n2cnc3c(N)ncnc32)[C@H](O)[C@@H]1O [Compound 11] |  |  | % inhibition, A1 (rat) (rat A1AR): (>10%, rat) ^e; % inhibition, A2A (rat) (rat A2AAR): > 10% |
| Nc1ncnc2c1ncn2[C@@H]1O[C@H](C(=O)NC2CC2)[C@@H](O)[C@H]1O [Compound 16, reference compound] | full agonists |  | agonist character at the A2AAR (full agonist) (hA2AAR): full agonists |
| Nc1ncnc2c1ncn2[C@@H]1O[C@H](C(=O)NC2CCC2)[C@@H](O)[C@H]1O [Compound 18] | partial agonist | 23 | agonist character at the A2AAR (full agonist) (hA2AAR): full agonists |
| Nc1ncnc2c1ncn2[C@@H]1O[C@H](C(=O)NC2CCCC2)[C@@H](O)[C@H]1O [Compound 22] | full agonists | 32 |  |
